Results taken from patent US20110250613A1, “Arrayed Multiple Ubiquitin Binding Domains as Linkage-specific Polyubiquitin Affinity Reagents” (THE JOHNS HOPKINS UNIVERSITY, priority 2009, published 2011).
Values joined by “and” are separate entries in the source; they are usually repeats but may differ in a detail not shown here. Equal entries are not always repeated. Each block holds one substance with its values, some of them ahead of it. Where no end group is shown, it is not given here. The star is where a group is joined. Fluorescein(5-Mal) = O=C1OC2(c3ccc(O)cc3Oc3cc(O)ccc32)c2ccc(N3C(=O)CC(*)C3=O)cc21

What was measured:
K63-Ub4 [1] = target: T1, K63-Ub4 (Homo sapiens, UniProt P0CG47, K63R); assay: SPR of captured GST-UBA proteins with K63-Ub4; format: binding; conditions: SPR (Table 4) versus fluorescence anisotropy (Table 5)
T1 construct: Ub and K48- and K63-linked diUb and tetraUb were made as described; made in house
Procedure: Surface Plasmon Resonance. SPR analyses was performed on a Biacore 3000 instrument at 25° C. in HBS-EP buffer (Biacore). Anti-GST antibody (Biacore) was immobilized by amine coupling on a Biacore CM5 chip. GST-UBA proteins were captured on a measurement surface at a density of 150-400 RU; an antibody-coupled surface served as the reference. Ubn chains were applied to the chip with a 5 μl/min flow rate and recorded the response; 50 mM glycine pH 1.8 or 15 mM NaOH was used to remove GST-UBA proteins and renew the surface. The data was fit with a single-site binding model as described in Wilkinson, 2004.

K63-Ub4 and K48-Ub4 = assay: GST pull-down assay with 125I-labeled K63- or K48-Ub4; format: binding
Procedure: Pull-Down Assays. GST-UBA protein was added to 15 μl of glutathione-agarose and the beads were washed with binding buffer [25 mM phosphate pH 7.4, 150 mM NaCl, 10 mM β-mercaptoethanol, 1 mM EDTA, 0.05% (v/v) Brij35]. ^125I-labeled K63 or K48-Ub4 (1 μM) was then added in 100 μl of binding buffer plus 1 mg ml^−1 BSA, and the beads agitated gently for 20 min. at room temperature. The specific radioactivities of ^125I-labeled K63- and K48-Ub4 were normalized beforehand with unlabeled chains. The beads were then washed quickly 2 or 3 times with binding buffer. The bound chains were eluted with SDS-PAGE sample buffer and resolved by SDSPAGE. The Ub4 bands were excised from the gel and quantified with a gamma-counter. “Bound counts” in FIG. 12d and FIG. 15d is the radioactivity (cpm) for a particular band minus the counts in the corresponding gel slice in the negative-control lane.

K63-Ub2 = target: T2, K63-Ub2 (Homo sapiens, UniProt P0CG47, K63R); assay: Fluorescence anisotropy binding of fluorescent tUIM peptides to K63-Ub2; conditions: fluorescence anisotropy
T2 construct: Ub and K48- and K63-linked diUb and tetraUb were made as described; made in house
Description: Fluorescent Labeling. Rap80 tUIM peptides were fluorescently-labeled on the sulfhydryl group of C121 (see FIG. 1). For longer Rap80 constructs, all cysteines except C121 were mutated to serine for site-specific labeling. Ataxin-3 and Vps27 UIM peptides were labeled on a single cysteine introduced at the C-terminus. Fluorescein-5-maleimide (Pierce) was coupled to cysteines following the manufacturer's instructions. After desalting through Sephadex G-25 resin, fluorescein-labeled tUIM peptides were separated from unlabeled peptides by anion-exchange chromatography (MonoQ column, GE Biosciences) by elution with a NaCl gradient in 50 mM Tris buffer, pH 7.9. The labeled peptides were essentially 100% pure by SDS-PAGE and Coomassie blue staining, and MALDI-TOF mass spectrometry confirmed the addition of a single fluorescein moiety. Fluorescence Anisotropy Binding Assays. Fluorescence anisotropy measurements were made using a Fluoromax 4 fluorometer in L format, thermostatted at 25° C. Excitation and emission monochromators were set at 492 nm and 520 nm, respectively. Slit widths were 3 nm for diUb-binding assays ([…]) or 6 nm for tetraUb-binding assays ([…]). Anisotropies were calculated by the instrument software, and the overall intensity of the fluorescence signal was monitored at each point with the polarizers oriented at the magic angle. All measurements were made in fluorescence buffer (25 mM Na phosphate [pH 7.4], 150 mM NaCl, 5 mM β-mercaptoethanol, 1 mM EDTA, and either 0.005% surfactant P20 (BIACORE) or 0.05% Brij35). Concentrations of the fluorescent proteins were calculated using the fluorescein extinction coefficient at 494 nm, 68000 M^-1 cm^-1. (poly)Ub concentrations were assessed by absorbance at 280 nm using the extinction coefficient 0.16 (mg/ml)^-1 cm^-1 ([…] and Raasi, 2005). Fluorescence anisotropy data were fit with a single-site binding model as described (Wilkinson, 2004). The equilibrium constants for wild-type Vps27 peptide binding to K63 and K48 Ub4 were determined by competition with the fluorescent Vps27 7aa linker peptide as described (Wilkinson, 2004).

K48-Ub2 = target: T3, K48-Ub2 (Homo sapiens, UniProt P0CG47, K48R); assay: Fluorescence anisotropy binding of fluorescent tUIM peptides to K48-Ub2; conditions: single-site fit, 25° C., pH 7.4
T3 construct: Ub and K48- and K63-linked diUb and tetraUb were made as described; made in house
Procedure: Fluorescence Anisotropy Binding Assays. Fluorescence anisotropy measurements were made using a Fluoromax 4 fluorometer in L format, thermostatted at 25° C. Excitation and emission monochromators were set at 492 nm and 520 nm, respectively. Slit widths were 3 nm for diUb-binding assays (1 mM fluorophore) or 6 nm for tetraUb-binding assays (0.1 mM fluorophore). Anisotropies were calculated by the instrument software, and the overall intensity of the fluorescence signal was monitored at each point with the polarizers oriented at the magic angle. All measurements were made in fluorescence buffer (25 mM Na phosphate [pH 7.4], 150 mM NaCl, 5 mM β-mercaptoethanol, 1 mM EDTA, and either 0.005% surfactant P20 (BIACORE) or 0.05% Brij35). Concentrations of the fluorescent proteins were calculated using the fluorescein extinction coefficient at 494 nm, 68000 M^-1 cm^-1. (poly)Ub concentrations were assessed by absorbance at 280 nm using the extinction coefficient 0.16 (mg/ml)^-1 cm^-1 ([…] and Raasi, 2005). Fluorescence anisotropy data were fit with a single-site binding model as described (Wilkinson, 2004).

K48-Ub4 [2] = assay: Fluorescence anisotropy binding of fluorescent tUIM peptides to K48-Ub4
Description: (§1) Fluorescent Labeling. Rap80 tUIM peptides were fluorescently-labeled on the sulfhydryl group of C121 (see FIG. 1). For longer Rap80 constructs, all cysteines except C121 were mutated to serine for site-specific labeling. Ataxin-3 and Vps27 UIM peptides were labeled on a single cysteine introduced at the C-terminus. Fluorescein-5-maleimide (Pierce) was coupled to cysteines following the manufacturer's instructions. After desalting through Sephadex G-25 resin, fluorescein-labeled tUIM peptides were separated from unlabeled peptides by anion-exchange chromatography (MonoQ column, GE Biosciences) by elution with a NaCl gradient in 50 mM Tris buffer, pH 7.9. […] Fluorescence Anisotropy Binding Assays. Fluorescence anisotropy measurements were made using a Fluoromax 4 fluorometer in L format, thermostatted at 25° C. […] Anisotropies were calculated by the instrument software, and the overall intensity of the fluorescence signal was monitored at each point with the polarizers oriented at the magic angle. All measurements were made in fluorescence buffer (25 mM Na phosphate [pH 7.4], 150 mM NaCl, 5 mM β-mercaptoethanol, 1 mM EDTA, and either 0.005% surfactant P20 (BIACORE) or 0.05% Brij35). Concentrations of the fluorescent proteins were calculated using the fluorescein extinction coefficient at 494 nm, 68000 M^-1 cm^-1. […]

K63-Ub4 [3] = target: T1, K63-Ub4; assay: Fluorescence anisotropy binding of fluorescent tUIM peptides to K63-Ub4; conditions: fluorescence anisotropy, single-site fit, 25° C., pH 7.4
Description: as §1

K63-Ub4 [4] = assay: Fluorescence anisotropy binding of fluorescent free UBA domains to K63-Ub4; conditions: free UBA domains
Description: (§2) Fluorescent Labeling. Ede1 UBA, hHR23A UBA1, Dsk2 UBA and Ddi1 UBA were produced as intein fusions and fluorescently labeled using expressed protein ligation as described in Scheibner et al., 2003. The dipeptide used for Ede1 labeling was Cys-Lys, with NHS-rhodamine (Pierce) coupled to the lysine amino group, and was a kind gift from Philip Cole (Johns Hopkins School of Medicine). MALDI mass spectroscopy confirmed the addition of the fluorescent dipeptide to the Ede1 UBA domain and that there was complete cleavage of the initiating methionine residue. hHR23A UBA1, Dsk2, and Ddi1 UBAs were labeled in a similar way, except that the dipeptide contained a fluorescein moiety instead of rhodamine. The fluorescein-labeled dipeptide was made as described in Scheibner et al., 2003. […]
(§3) Fluorescence Anisotropy Binding Assays. Fluorescence anisotropy measurements were performed as described (Sims and Cohen, 2009) using excitation and emission maxima of 492 nm/520 nm (fluorescein), 556 nm/569 nm (Alexa Fluor 546), or 555 nm/578 nm (rhodamine), in binding buffer at 25° C. The concentrations of the fluorescent proteins were calculated using published extinction coefficients (Invitrogen-Molecular Probes). polyUb concentrations were assessed from absorbance at 280 nm using the Ub extinction coefficient of 0.16 (mg per ml)^−1 cm^'1.49. […]

K48-Ub4 [5] = assay: Fluorescence anisotropy binding of fluorescent free UBA domains to K48-Ub4; conditions: free fluorescent UBA domain
Description: as §2, §3

monoUb = target: T4, monoUb (Homo sapiens, UniProt P0CG47); assay: Fluorescence anisotropy binding of fluorescent UIM peptides to monoUb
T4 construct: Ub and K48- and K63-linked diUb and tetraUb were made as described; made in house
Description: as §1

[6] = single-site fit, 25° C., pH 7.4

Substance: GST-UBA hHR23A UBA1: GST fusion of human hHR23A UBA1 domain; sequence in Table 3
K63-Ub4 affinity of the GST fusion tighter than the free domain (K63-Ub4 [1]): > 6 fold

Substance: GST-UBA Ede1: GST fusion of the yeast Ede1 UBA domain, dimeric; sequence in Table 3 (GSATTPKSLAVEELSGMGFTEEEAHNALEKCNWDLEAATNFLLDSA; also: GST fusion, dimeric)
K63-Ub4 affinity of the GST fusion tighter than the free domain (K63-Ub4 [1]): 9 fold | preference for K63-Ub4 over K48-Ub4 by pull-down (K63-Ub4 and K48-Ub4; 125I-labeled Ub4 1 μM, bound counts, listed as GST-Ede1): 12 fold and > 11 fold

Substance: PSSHHHHHHSSGLVPRGSHMTEEEQFALALKMSEQEAEEEEELLRKAIAESLNSC(Fluorescein(5-Mal))RPS [Rap80 no linker]
Kd (K63-Ub2; [6]): 47 µM

Substance: Ddi1
difference in Kd for K63- and K48-Ub4 (K63-Ub4 [4]): < 2 fold | Kd (K48-Ub4 [5]): 50 µM

Substance: PSSHHHHHHSSGLVPRGSHMTEEEQFALALKMSEQEAAAEEEEELLRKAIAESLNSC(Fluorescein(5-Mal))RPS [Rap80 2A linker]
Kd (K63-Ub2; [6]): 110 µM | Kd (K48-Ub2): 180 µM | Kd (K63-Ub4 [3]): 19 µM

Substance: GST-fmm: functionally monomeric mixture: GST-His homodimers and GST-His/GST-Ede1 heterodimers at about 6:1 (GSATTPKSLAVEELSGMGFTEEEAHNALEKCNWDLEAATNFLLDSA; also: GST-His fusion, mixture of GST-His homodimers and GST-His/GST-Ede1 heterodimers at about 6:1)
Ub4 linkage preference by pull-down (K63-Ub4 and K48-Ub4; 125I-labeled K63-Ub4 versus K48-Ub4): no linkage preference

Substance: PSSHHHHHHSSGLVPRGSHMTEEEQFALALKMSEQEAREVNSQEEEEEELLNSC(Fluorescein(5-Mal))RPS [UIM1]
Kd (monoUb): 510 µM | Kd (K63-Ub2; text of Example 2): 230 µM | Kd (K48-Ub2): 280 µM

Results, then the substance that gave them:

Kd (K63-Ub2; [6]): 91 µM | Kd (K48-Ub2): 100 µM | preference for K48-Ub4 over K63-Ub4 (K48-Ub4 [2]; fluorescence anisotropy Kd values, Table 2): 5 fold | Kd (K48-Ub4 [2]; fluorescence anisotropy, single-site fit, 25° C., pH 7.4): 3.3 µM
Substance: ataxin-3 (WT): human ataxin-3 tandem UIM peptide, 2-residue linker DM

Kd (K63-Ub2; [6]): 115 µM | Kd (K48-Ub2): 143 µM | Kd (K63-Ub4 [3]): 20 µM
Substance: PSSHHHHHHSSGLVPRGSHMTEEEQFALALKMSEQEADMEEEEELLRKAIAESLNSC(Fluorescein(5-Mal))RPS [Rap80 ataxin linker]

Kd (monoUb): 520 µM | Kd (K63-Ub2; text of Example 2): 470 µM | Kd (K48-Ub2): 200 µM
Substance: PSSHHHHHHSSGLVPRGSHMTEEEQEQEAREVNSQEEEEEELLRKAIAESLNSC(Fluorescein(5-Mal))RPS [UIM2]
